Assay results from patent publication US12043622B2, “Crystal form of compound for inhibiting the activity of CDK4/6 and use thereof” (Betta Pharmaceuticals Co., Ltd., priority 2019, dated 2024).
Read-outs that look alike come from different tables or passages of the source.

Legend:
[1] = Solubility in water at room temperature; format: physicochemical; details: for Classification of solubility: classes of the Chinese Pharmacopoeia (2015); for solubility: thermodynamic from solid
[2] = Stability of the crystal form, checked by XRD; format: physicochemical
Procedure: In one embodiment of the invention, XRD analysis of the small sample (batch number: 1072P04-A14S01) was performed by SoliPharmausing Bruker D8 Advance Diffractometer.

CDK2/cyclin E = CDK2/cyclin E (Homo sapiens, UniProt P24941); experiment: CDK subtype selectivity, 33P-ATP radiometric kinase assay; format: biochemical
From the text: (§1) The mechanism of this method is shown in formula (IV).
(§2) Data was processed with Prism4 Software (GraphPad), and the curve fitting formula was: Y=Bottom+(Top−Bottom)/(1+10^((Log IC50−X)*HillSlope)); wherein, Y is percent inhibition (%); X is logarithm of concentration of the inhibitor.

CDK9/cyclin T1 = CDK9/cyclin T1 (Homo sapiens, UniProt P50750); experiment: as above; format: biochemical
Chain of CDK9/cyclin T1 (P50750 whole entry, species assumed): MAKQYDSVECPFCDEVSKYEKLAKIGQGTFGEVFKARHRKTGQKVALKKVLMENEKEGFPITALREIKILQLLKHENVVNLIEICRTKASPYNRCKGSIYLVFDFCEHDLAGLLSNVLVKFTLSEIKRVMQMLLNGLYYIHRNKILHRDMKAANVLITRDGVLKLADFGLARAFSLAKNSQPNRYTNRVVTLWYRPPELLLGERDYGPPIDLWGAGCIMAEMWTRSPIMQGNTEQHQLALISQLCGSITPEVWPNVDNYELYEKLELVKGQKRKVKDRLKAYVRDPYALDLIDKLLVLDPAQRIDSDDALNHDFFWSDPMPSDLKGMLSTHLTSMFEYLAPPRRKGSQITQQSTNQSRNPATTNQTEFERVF
Chain of CDK9/cyclin T1 (O60563 whole entry partner, species assumed): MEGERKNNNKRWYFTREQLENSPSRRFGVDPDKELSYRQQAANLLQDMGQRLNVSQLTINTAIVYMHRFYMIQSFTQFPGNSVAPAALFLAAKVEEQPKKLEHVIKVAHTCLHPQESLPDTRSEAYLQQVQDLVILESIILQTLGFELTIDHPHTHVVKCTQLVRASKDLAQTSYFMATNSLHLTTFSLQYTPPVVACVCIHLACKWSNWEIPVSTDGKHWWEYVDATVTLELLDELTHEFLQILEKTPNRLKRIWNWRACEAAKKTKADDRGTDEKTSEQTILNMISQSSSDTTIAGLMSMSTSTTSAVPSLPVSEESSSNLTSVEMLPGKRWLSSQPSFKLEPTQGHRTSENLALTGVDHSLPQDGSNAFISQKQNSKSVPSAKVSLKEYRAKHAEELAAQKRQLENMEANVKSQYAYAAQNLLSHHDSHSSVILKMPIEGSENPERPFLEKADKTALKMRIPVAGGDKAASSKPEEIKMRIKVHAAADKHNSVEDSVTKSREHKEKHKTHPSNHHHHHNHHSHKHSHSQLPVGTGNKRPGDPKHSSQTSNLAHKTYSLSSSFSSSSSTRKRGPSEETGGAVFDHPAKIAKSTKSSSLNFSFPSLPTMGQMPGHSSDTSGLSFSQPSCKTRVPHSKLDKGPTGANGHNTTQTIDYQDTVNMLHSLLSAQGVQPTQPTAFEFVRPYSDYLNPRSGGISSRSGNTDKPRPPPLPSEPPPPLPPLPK
From the text: as §1, §2

[3] = Pharmacokinetic experiment in SD rats, plasma by LC-MS/MS; format: in vivo; details: both sexes, Sprague-Dawley (SD), rat, PO, 30 mg/kg
Procedure: A total of 12 SD rats were divided into two groups, 6 in each group, each half of male and female.
In the above plasma sample, protein was precipitated by acetonitrile, the supernatant was diluted 3 times with water, and 5 μL was detected by LC-MS/MS, the results of experiment was shown in table 10: […]

[4] = Crystal form long-term stability, impurities by HPLC; format: physicochemical; details: for Content > 0.1% Number of unknown impurities (s) / Maximum single impurity content (%) / Total impurity content (%): 25° C.±2° C., RH 60%±10%, HPLC
[5] = Solid form conversion of amorphous and metastable forms; format: physicochemical; details: for Solid form stability under moisture: water/moisture, room temperature
[6] = Dynamic moisture sorption (DVS); format: physicochemical
From the text: The instruments and methods of Dynamic moisture adsorption in the present invention was shown in table 7, the results of DVS was shown in table 8.

CCN1CCN(Cc2ccc(Nc3ncc(F)c(-c4cc(F)c5nc6n(c5c4)[C@H](C)CCC6)n3)nc2)CC1.CS(=O)(=O)O [crystal form D of compound III]
Classification of solubility [1]: soluble
solubility [1]: 50 to 100 mg/mL
XRD pattern after storage (crystal form stability) ([2]; 25° C., 60% RH, 10 days): changed
XRD pattern after storage (crystal form stability) ([2]; 40° C., 75% RH, 10 days): changed
XRD pattern after storage (crystal form stability) ([2]; dried at 80° C., 24 h, listed as crystal form D of the compound III): unchanged

CCN1CCN(Cc2ccc(Nc3ncc(F)c(-c4cc(F)c5nc6n(c5c4)[C@H](C)CCC6)n3)nc2)CC1 [compound I, (R)—N-(5-((4-ethylpiperazin-1-yl)methyl)pyridin-2-yl)-5-fluoro-4-(6-fluoro-1-methyl-1,2,3,4-tetrahydrobenzo[4,5]imidazo[1,2-a]pyridin-8-yl)pyrimidin-2-amine]
IC50 (CDK2/cyclin E; stated jointly for CDK1/2/7/9, read-out: IC50 for inhibiting CDK2): > 400 nM
IC50 (CDK9/cyclin T1; stated jointly for CDK1/2/7/9, read-out: IC50 for inhibiting CDK9): > 400 nM
AUC(0-t) [3]: 27700 ng·h/mL
Classification of solubility [1]: Very little soluble
solubility [1]: < 1 mg/mL
Content > 0.1% Number of unknown impurities (s) ([4]; 0 month): 0
Maximum single impurity content (%) ([4]; 0 month): 0.04%
Total impurity content (%) ([4]; 0 month): 0.11%
Content > 0.1% Number of unknown impurities (s) ([4]; 3 month): 0
Maximum single impurity content (%) ([4]; 3 month): 0.10%
Total impurity content (%) ([4]; 3 month): 0.17%
Maximum single impurity content (%) ([4]; 18 month): 0.22%
Total impurity content (%) ([4]; 18 month): 1.0%

CCN1CCN(Cc2ccc(Nc3ncc(F)c(-c4cc(F)c5nc6n(c5c4)[C@H](C)CCC6)n3)nc2)CC1 [compound 2b]
IC50 (CDK2/cyclin E; read-out: IC50 CDK2/cyclin E): 441 nM
IC50 (CDK9/cyclin T1; read-out: IC50 CDK9/cyclin T1): 649 nM

CCN1CCN(Cc2ccc(Nc3ncc(F)c(-c4cc(F)c5nc6n(c5c4)[C@H](C)CCC6)n3)nc2)CC1.CS(=O)(=O)O [amorphous form of compound III]
Solid form stability on scale-up ([5]; scaled up to 50 mg): unstable

CCN1CCN(Cc2ccc(Nc3ncc(F)c(-c4cc(F)c5nc6n(c5c4)[C@H](C)CCC6)n3)nc2)CC1.O=C(O)C(O)C(O)C(=O)O [amorphous form of compound II]
Solid form stability under moisture [5]: readily converted to the crystal form B of compound II
Solid form stability under moisture ([5]; listed as amorphous form of Compound II): readily forms Form B of Compound II

CCN1CCN(Cc2ccc(Nc3ncc(F)c(-c4cc(F)c5nc6n(c5c4)[C@H](C)CCC6)n3)nc2)CC1.O=C(O)C(O)C(O)C(=O)O [crystal form B of compound II]
Solid form stability on heating ([5]; heated to 180° C.): could be converted to crystal form A
Weight change in the range of 0% RH-80% RH [6]: 5.5%

CCN1CCN(Cc2ccc(Nc3ncc(F)c(-c4cc(F)c5nc6n(c5c4)[C@H](C)CCC6)n3)nc2)CC1.O=C(O)C(O)C(O)C(=O)O [crystal form A of compound II]
AUC(0-t) [3]: 47000 ng·h/mL
Classification of solubility [1]: Readily-soluble
solubility [1]: 100 to 200 mg/mL
Content > 0.1% Number of unknown impurities (s) ([4]; 0 month): 0
Maximum single impurity content (%) ([4]; 0 month): 0.05%
Total impurity content (%) ([4]; 0 month): 0.10%
Content > 0.1% Number of unknown impurities (s) ([4]; 3 month): 0
Maximum single impurity content (%) ([4]; 3 month): 0.05%
Total impurity content (%) ([4]; 3 month): 0.13%
Content > 0.1% Number of unknown impurities (s) ([4]; 18 month): 0
Maximum single impurity content (%) ([4]; 18 month): 0.06%
Total impurity content (%) ([4]; 18 month): 0.21%
Amount of the impurities produced ([4]; after 18 months): less than 0.1%
XRD pattern after storage (crystal form stability) ([2]; 25° C., 60% RH, 10 days): not changed
XRD pattern after storage (crystal form stability) ([2]; 25° C., 60% RH, 10 days, listed as crystal form A of the compound II): unchanged
XRD pattern after storage (crystal form stability) ([2]; 40° C., 75% RH, 10 days): not changed
XRD pattern after storage (crystal form stability) ([2]; 40° C., 75% RH, 10 days, listed as crystal form A of the compound II): unchanged
XRD pattern after storage (crystal form stability) ([2]; dried at 80° C., 24 h): not changed
XRD pattern after storage (crystal form stability) ([2]; dried at 80° C., 24 h, listed as crystal form A of the compound II): unchanged

CCN1CCN(Cc2ccc(Nc3ncc(F)c(-c4cc(F)c5nc6n(c5c4)[C@H](C)CCC6)n3)nc2)CC1.CS(=O)(=O)O [crystal form F of compound III]
Weight change in the range of 0% RH-80% RH [6]: 16.6%
XRD pattern after storage (crystal form stability) ([2]; 25° C., 60% RH, 10 days): changed
XRD pattern after storage (crystal form stability) ([2]; 40° C., 75% RH, 10 days): changed
XRD pattern after storage (crystal form stability) ([2]; dried at 80° C., 24 h, listed as crystal form F the compound III): changed
